# Test results: US5753789A, “Oligonucleotides containing L-nucleosides” (priority 1996, dated 1998)
# Where two headings read alike, the source gives them in different places.
# Tests used:
# [1] = Cytotoxicity in H1 cells (cell count); format: cell-based; details: human
# Experimental: (§1) Inhibitory effect of compounds on EBV: The CD50 was performed by
# exposing H1 cells to different concentrations of the compounds in normal
# growth medium at 37° C. for 72 hours; the cells were then counted
# and compared with controls. H1 cells were treated for 5 days and the […]
# EBV = test: Inhibitory effect of compounds on EBV (virus production in H1 cells, bioassay of EBV DP activity in Raji cells); format: cell-based, Epstein-Barr virus; details: for Therapeutic Index (CD50/ID90): CD50 in H1 cells / ID90 for EBV; for IC90: human gammaherpesvirus 4, Raji, 120 h, EBV, H1 cells treated for 5 days, bioassay, read-out: ID90 (the source's name)
# Experimental: (§2) H1 cells were maintained in […] growth for two days prior to the initiation of treatment. The cells were centrifuged at 600 g for 10 min. at room temperature to separate them from the medium containing pre-existing virus particles. The H1 cells were seeded in 24 well plates at a density of 1×10^5 cells per well in 2 ml of fresh medium with or without drug and incubated at 37° C. for 5 days. The medium containing virion was saved and used for evaluating the inhibitory effect of drugs on virus production and infectivity by use of a bioassay. The virion were pelleted from the cell free medium by centrifugation at 45,000 rpm for 90 min. in a SW-50 Ti rotor (Beckman). The virion were resuspended in 1 ml growth medium and then used to infect 1×10^6 Raji cells for 48 hours. Since the level of EBV DP activity in Raji cells post superinfection is proportional to the number of virions added, the EBV specific DP activity induced was able to be measured. The inhibitory drug effect was calculated by comparing the EBV DP activity to multiple dilution controls.
# as §1
# and compared with controls. H1 cells were treated for 5 days and the
# ID90 was determined by bioassay.
# HBV = test: Biological activity against HBV in 2.2.15 cells (HBV DNA, Southern analysis); format: cell-based; details: Hepatitis B virus, 144 h, read-out: Anti-HBV Activity ID50
# Experimental: Human hepatoma cells with HBV (2.2.15 cells) were used in the assay. These cells were grown to confluence in minimal essential medium with 10% fetal bovine serum. The media was changed at 3-day intervals. At confluence the treatment with the drugs was initiated and then continued for three days. Another addition of the same concentration of the drug was given at this point after removal of the media from the cultures and cultures maintained for an additional period of 3 days. The medium after the 6-day treatment was harvested and the viral particles precipitated by the polyethylene glycol method. The particles were subsequently digested and then processed for Southern analysis. The blots were hybridized to an HBV-specific probe and viral DNA amounts assessed in comparison to DNA levels from cultures not treated with the drugs. The genomic DNA was digested with Hind III and subjected to Southern analysis. Levels of the episomal DNA were determined in relation to the integrated HBV DNA. The drug concentrations that cause 50% inhibition of the DNA (ID50) as compared to the controls were calculated.
# [2] = Clearance of L-(-)-FMAU from liver after oral administration; format: in vivo; details: mice, 10 or 50 mg/kg
# Experimental: (§3) The clearance of L-(-)-FMAU from the plasma and liver of mice after oral administration was evaluated. Mice were […] with L-(-)-FMAU which was tritium labeled (radiospecificity of […]).
# (§4) FIG. 11 is a graph of the plasma concentration of L-(-)-FMAU in mice after oral administration over time, and FIG. 12 is a graph of the concentration of L-(-)-FMAU in mouse liver after oral administration over time (cross, 10 mg/kg administered bid (bi-daily) for 30 days prior to pharmacokinetic study and then study carried out on day thirty-one on administration of same concentration; dark circle, 50 mg/kg administered bid for 30 days prior to study and then study carried out on day thirty-one on administration of same concentration; open circle, 50 mg/kg administered for the first time on the first day of the study).
# (§5) At the times indicated (see FIGS. […]) the mice were bled from their retro-orbital sinus using heparinized capillaries. The plasma was extracted with trichloroacetic acid and neutralized with freon/trioctylamine. Supernatants were directly counted and the concentration calculated.
# [3] = Clearance of L-(-)-FMAU from plasma after oral administration; format: in vivo; details: mice, 10 or 50 mg/kg
# Experimental: as §3, §4, §5
# [4] = Clinical chemistry of mouse plasma after L-(-)-FMAU treatment; format: in vivo; details: 10 or 50 mg/kg bid, thirty days
# Experimental: FIGS. 14-20 provide the clinical chemistry of mouse plasma after administration of L-(-)-FMAU at 10 mg/kg (three mice) or 50 mg/kg (three mice) bid for thirty days.
# [5] = Toxicity in BDF1 female mice (body weight over thirty days); format: in vivo; details: 10 mg/kg and 50 mg/kg bid
# Experimental: FIG. 13a illustrates the change in body weight over thirty days of control BDF1 female mice. FIGS. 13b and 13c illustrate the change in body weight over thirty days of BDFI female mice dosed with 10 mg/kg (13b) and 50 mg/kg (13c) bid of L-(-)-FMAU. The body weight presented represents the mean and standard deviation of that of five to seven mice.
# [6] = tested on: mitochondrial DNA content in H1 cells; test: Mitochondrial DNA content of H1 cells (slot blot assay); format: cell-based, human; details: 1 mM, 6 days
# Experimental: as §2
# Slot Blot Assay--The amount of mitochondrial DNA was measured by the slot blot method (2). […] The amount of mitochondrial DNA in the treated and non-treated H1 cells was quantified by densitometer (LKB Ultroscan XL).
# [7] = 37° C., 72 hours, Table 2, read-out: CD50
# [8] = Table I, read-out: (H1 cells) CD50
Structure (SMILES),"CC50 at 72 h [1, 7] [µM]",Therapeutic Index (CD50/ID90) (EBV),IC90 (EBV) [µM],"CC50 at 72 h [1, 8] [µM]",also measured
O=c1[nH]c(=O)n([C@@H]2O[C@H](CO)[C@@H](O)[C@@H]2F)cc1I [D-FIAU],20 ± 4,40,0.5 ± 0.05,–,–
CCc1cn([C@@H]2O[C@H](CO)[C@@H](O)[C@@H]2F)c(=O)[nH]c1=O [D-FEAU],–,2000,–,2000,–
"O=c1[nH]c(=O)n([C@H]2O[C@@H](CO)[C@H](O)[C@H]2F)cc1I [L-FIAU, 2'-fluoro-5-iodo-β-L-arabinofuranosyluridine]",240 ± 20,12,20 ± 4,–,–
"CCc1cn([C@H]2O[C@@H](CO)[C@H](O)[C@H]2F)c(=O)[nH]c1=O [L-FEAU, 2'-fluoro-5-ethyl-β-L-arabinofuranosyluridine]",–,15,60 ± 11,900,–
Nc1nc2c(ncn2COC(CO)CO)c(=O)[nH]1 [DHPG],75 ± 6,15,–,–,–
Nc1nc2c(ncn2COCCO)c(=O)[nH]1 [ACV],1000 ± 75,20,–,–,–
Nc1nc(=O)n([C@@H]2O[C@H](CO)[C@@H](O)[C@@H]2F)cc1I [D-FIAC],125 ± 15,25,5 ± 0.5,–,–
"Nc1nc(=O)n([C@H]2O[C@@H](CO)[C@H](O)[C@H]2F)cc1I [L-FIAC, 2'-fluoro-5-iodo-β-L-arabinofuranosylcytosine]",400 ± 35,> 40,< 10,–,–
O=C(O)P(=O)(O)O [PFA],1200 ± 100,16,–,–,–
Cc1cn([C@@H]2O[C@H](CO)[C@@H](O)[C@@H]2F)c(=O)[nH]c1=O [D-FMAU],–,50,–,50,IC50 (HBV): 2 µM
Nc1nc2c(ncn2CCC(CO)CO)c(=O)[nH]1 [PCV],500 ± 55,25,–,–,–
"Cc1cn([C@H]2O[C@@H](CO)[C@H](O)[C@H]2F)c(=O)[nH]c1=O [L-FMAU, 2'-fluoro-5-methyl-β-L-arabinofuranosyluridine]",–,200,–,1000,"Clearance from liver [2]: substantially cleared from both plasma and liver after four hours; Time of peak concentration in liver [2]: approximately one; Clearance from plasma [3]: substantially cleared from both plasma and liver after four hours; Time of peak concentration in plasma [3]: approximately one; ALT (SGPT) in mouse plasma [4]: With the exception of mouse 50-2 (for both SGOT and SGPT) and mouse 10-2 (for SGOT only), the enzyme levels of the treated mice are not different from those of the control mice; AST (SGOT) in mouse plasma [4]: With the exception of mouse 50-2 (for both SGOT and SGPT) and mouse 10-2 (for SGOT only), the enzyme levels of the treated mice are not different from those of the control mice; Creatinine in mouse plasma [4]: With the exception of mouse 50-2, the creatinine levels of the treated mice are not different from those of the control mice; Lactic acid in mouse plasma [4]: not significantly differnt from those of the control mice; Lactic dehydrogenase in mouse plasma [4]: not significantly differnt from those of the control mice; Alkaline phosphatase in mouse plasma ([4]; normal human level 30-114 U/L): somewhat higher than the normal human level; Total bilirubin in mouse plasma ([4]; normal human range less than 1.2 mg/dL): fall within the normal human range; IC50 (HBV): 0.1 µM; Change in body weight [5]: did not appear to significantly affect the weight of the mice over thirty days; Tolerability [5]: well tolerated; Inhibition of mitochondrial DNA content [6]: No inhibition of mitochondrial DNA content in H1 cells was observed"
